Source: PMC10809502, “Application of a new MDCKII-MDR1 cell model to measure the extent of drug distribution in vitro at equilibrium for prediction of in vivo unbound brain-to-plasma drug distribution” (Fluids and Barriers of the CNS, 2024)

Tests used:
[1] = biological target: T1, Bovine Serum Albumin (BSA) (Bos taurus, UniProt P02769); assay: Fraction unbound in 35 μM BSA, equilibrium dialysis; details: for fraction unbound at 5 h, 1 μM: bovine; for Predicted fu (%) BSA 35 μM (D = 20): calculated with Eq. 2 from fu measured in 100% matrices (ref 20), dilution factor 20
T1 sequence (P02769 25-607): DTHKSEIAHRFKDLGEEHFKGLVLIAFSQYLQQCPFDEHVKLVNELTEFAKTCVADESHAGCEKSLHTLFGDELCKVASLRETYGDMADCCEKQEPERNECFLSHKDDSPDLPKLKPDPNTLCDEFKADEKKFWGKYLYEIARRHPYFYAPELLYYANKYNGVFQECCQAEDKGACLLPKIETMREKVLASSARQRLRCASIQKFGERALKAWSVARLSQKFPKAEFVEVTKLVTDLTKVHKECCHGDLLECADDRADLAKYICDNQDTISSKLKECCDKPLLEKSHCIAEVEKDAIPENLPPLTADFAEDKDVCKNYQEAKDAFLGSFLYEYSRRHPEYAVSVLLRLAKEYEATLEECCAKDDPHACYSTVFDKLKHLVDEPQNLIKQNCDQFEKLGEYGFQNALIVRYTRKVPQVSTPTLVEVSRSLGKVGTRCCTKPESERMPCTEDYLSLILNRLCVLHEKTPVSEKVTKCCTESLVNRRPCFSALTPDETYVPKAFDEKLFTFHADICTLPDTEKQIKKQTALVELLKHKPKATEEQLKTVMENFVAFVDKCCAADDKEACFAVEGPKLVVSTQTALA

[2] = Fraction unbound in 20-fold diluted brain homogenate, equilibrium dialysis; details: for fraction unbound at 5 h, 1 μM: Göttingen, minipig, pH 7.4; for Predicted fu (%) Brain (D = 20): calculated with Eq. 2 from fu measured in 100% matrices (ref 20), dilution factor 20
[3] = cited from earlier work; for Kp,uu,brain in vivo: Göttingen minipig
P-gp (human MDR1) [4] = assay: Equilibrium distribution study (in vitro Kp,brain / Kp,uu,brain) across MDCKII-MDR1 cells, BSA apical, brain homogenate basolateral, Uni-L and Bi-L; details: dog; for Kp at 29 h, 1 μM: brain homogenate/BSA ratio
P-gp (human MDR1) [5] = assay: in vitro; details: dog
[6] = biological target: T1, Bovine Serum Albumin (BSA); assay: Fraction unbound in 700 μM BSA in phosphate buffer; type: in vitro ADME; design: BSA (purity > 98%) was obtained from Beijing SeaskyBio Technology Co. Ltd; purchased Beijing SeaskyBio Technology Co. Ltd. BSAS (Lot 541); details: read-out: fu, 700 μM BSA
MDCKII-MDR1 cell line = system: MDCKII-MDR1 cell line; design: method as in PMID 34756975, PMID 15236458; details: cited from earlier work
[7] = 20-fold diluted brain homogenate
[8] = MDCK-MDR1, pH 7.5, in vitro determined Kp,brain Bi-L, Bi-L (compound loaded both sides), 29 h
[9] = MDCK-MDR1, pH 7.5, in vitro determined Kp,brain Uni-L, Uni-L (compound loaded apically in BSA), 29 h
[10] = pH 7.5, Recovery Bi-L, mass balance Eq. 7, Bi-L, 29 h, % printed
[11] = pH 7.5, Recovery Uni-L, mass balance Eq. 6, Uni-L, 29 h, % printed
[12] = pH 7.5, assay recovery, equilibrium distribution experiment, setup (Uni-L/Bi-L) not given
[13] = MDCK-MDR1, pH 7.4, with an inhibitor present (name and concentration not stated)

SMILES | fraction unbound at 5 h, 1 μM ([1]; 35 μM BSA) | Predicted fu (%) BSA 35 μM (D = 20) [1] [%] | fraction unbound at 5 h, 1 μM [2, 7] | Predicted fu (%) Brain (D = 20) [2] [%] | Kp,uu,brain in vivo [3] | Kp at 29 h, 1 μM (P-gp (human MDR1) [4]; [8]) | Kp at 29 h, 1 μM (P-gp (human MDR1) [4]; [9]) | recovery at 29 h, 1 μM (P-gp (human MDR1) [4]; [10]) [%] | recovery at 29 h, 1 μM (P-gp (human MDR1) [4]; [11]) [%] | recovery at 29 h, 1 μM (P-gp (human MDR1) [4]; [12]) [%] | Papp B→A at 60 min, 0.5 μM (P-gp (human MDR1) [5]; MDCK-MDR1, pH 7.4) [×10⁻⁶ cm/s] | efflux ratio at 60 min, 0.5 μM (P-gp (human MDR1) [5]; MDCK-MDR1, pH 7.4) | further results
O=C(c1ccc(F)cc1)C1CCN(CCn2c(=S)[nH]c3ccccc3c2=O)CC1 [Altanserin] | 0.451 ± 0.035 | 26.8 | 0.229 ± 0.014 | 22.1 | 0.85 | 1.49 | 1.48 | 17 | 18 | ~20 | 3.4 ± 0.3 | 1.1 | –
O=C1CC2(CCCC2)CC(=O)N1CCCCN1CCN(c2ncccn2)CC1 [Buspirone, buspirone] | – | – | – | – | – | – | – | 71 | 76 | – | 20 ± 3 | – | –
CN/C(=N/CCSCc1nc[nH]c1C)NC#N [Cimetidine, cimetidine] | > 1 | 99.2 | 0.938 ± 0.05 | 95.6 | 0.02 | 0.6 | 0.19 | 78 | 73 | – | 2.5 ± 0.2 | – | Papp A→B at 60 min, 0.5 μM (P-gp (human MDR1) [5]; MDCK-MDR1, pH 7.4): < 1 ×10⁻⁶ cm/s
CN(C)CCCC1(c2ccc(F)cc2)OCc2cc(C#N)ccc21 (centres unmarked) [Citalopram, citalopram] | 0.973 ± 0.027 | 96.0 | 0.513 ± 0.066 | 47.9 | 0.90 | 1.5 | 1.5 | 67 | 73 | – | 7.7 ± 0.3 | 1.7 | –
CN(C)CCC=C1c2ccccc2COc2ccccc21 [Doxepin, doxepin] | 0.922 ± 0.029 | 87.1 | 0.248 ± 0.05 | 33.0 | – | 2.2 | 2.2 | 54 | 59 | ~50 | 2.2 ± 0.1 | 1.1 | Papp A→B at 60 min, 0.5 μM (P-gp (human MDR1) [5]; MDCK-MDR1, pH 7.4): 2 ± 0.1 ×10⁻⁶ cm/s; recovery at 60 min, 0.5 μM (P-gp (human MDR1) [5]; MDCKII-MDR1 cell monolayers (transfected with human MDR1), pH 7.4): ~50%
CNCCC(Oc1ccc(C(F)(F)F)cc1)c1ccccc1 (centres unmarked) [Fluoxetine, fluoxetine] | 0.66 ± 0.032 | 70.6 | 0.052 ± 0.005 | 5.7 | – | – | – | – | – | – | – | – | –
NCC1(CC(=O)O)CCCCC1 [Gabapentin, gabapentin] | – | 99.8 | – | 93.4 | 0.13 | 0.9 | 0.11 | 86 | 85 | – | 1.6 ± 0.2 | 0.5 | fraction unbound at 5 h, 1 μM ([1]; isolated protein): 0.984 ± 0.062; fraction unbound at 5 h, 1 μM ([2]; brain homogenate): 0.946 ± 0.015
COc1ccc2c(c1)c(CC(=O)O)c(C)n2C(=O)c1ccc(Cl)cc1 [Indomethacin, indomethacin] | – | – | 0.358 ± 0.08 | 42.8 | 0.13 | 0.78 | 0.88 | 69 | 73 | – | 2.7 ± 0.3 | – | Kp uu at 29 h, 1 μM (P-gp (human MDR1) [4]; MDCK-MDR1, pH 7.5): ≥ 1
CCN(CC)CCNC(=O)c1cc(Cl)c(N)cc1OC [Metoclopramide, metoclopramide] | > 1 | 98.8 | 0.878 ± 0.038 | 90.7 | – | 0.96 | 1 | 66 | 66 | – | 49 ± 3 | 2 | fraction unbound at 5 h, 1 μM [6]: 0.904
Clc1ccc2c(c1)N=C(N1CCNCC1)c1ccccc1N2 [N-desmethylclozapine] | 0.892 ± 0.029 | 82.1 | 0.131 ± 0.006 | 13.9 | 0.71 | 4.2 | 4.2 | 53 | 62 | ~50 | 4.4 ± 0.3 | 2.1 | classification of brain penetration in vivo ([3]; Göttingen minipig Kp,uu,brain): unrestricted (unrestricted brain penetration with Kp,uu,brain > 0.7); Papp A→B at 60 min, 0.5 μM (P-gp (human MDR1) [5]; [13]): 3.6 ×10⁻⁶ cm/s; Papp B→A at 60 min, 0.5 μM (P-gp (human MDR1) [5]; [13]): 2.9 ×10⁻⁶ cm/s
CC(C)NCC(O)COc1cccc2ccccc12 (centres unmarked) [Propranolol, propranolol] | 0.897 ± 0.018 | 86.8 | 0.35 ± 0.012 | 37.4 | 0.76 | 1.9 | 2.2 | 21 | 25 | ~20 | 3.7 ± 0.1 | 0.8 | –
COc1ccccc1N1CCN(CCN(C(=O)C2CCCCC2)c2ccccn2)CC1 [Way-100635] | – | 87.1 | – | 71.8 | 0.40 | – | – | – | – | – | – | – | Kp,uu,brain in Vitro Uni-L (Det. fu) (MDCKII-MDR1 cells): 1.09; Kp,uu,brain in Vitro Uni-L (Pre.fu) (MDCKII-MDR1 cells): 0.96; assay recovery, equilibrium distribution experiment (MDCKII-MDR1 cells): around 50%; in vitro Kp,uu,brain (MDCKII-MDR1 cells; dog, MDCK-MDR1): ~ 1; Determined fu (%) BSA 35 μM (D = 20) ([1]; 35 μM BSA, 1 μM, 5 h, 37 ℃, Eq. 1, mean ± SD N=3): 80.2 ± 0.9%; Determined fu (%) Brain (D = 20) ([2]; 20-fold diluted brain homogenate, 1 μM, 5 h, 37 ℃, Eq. 1, mean ± SD N=3): 74.8 ± 8.0%
OC[C@@H](O)[C@@H](O)[C@H](O)[C@H](O)CO [mannitol] | – | – | – | – | – | – | – | – | – | – | – | – | mannitol flux (MDCKII-MDR1 cell line): 1–7 10^–7 cm/s
